Measurements taken from patent US5512569A, “Aminoalkyl benzothiazolinones” (Adir et Compagnie, priority 1994, dated 1996).

Tested on: catalepsigenic effect
Assay: Investigation into the catalepsigenic effect in rats
Assay type: in vivo, Wistar rats
Conditions: 2 mg.kg^-1, same study conditions (IP, rats, 30-minute interval)
Experimental: The catalepsigenic effect is investigated in rats via the intraperitoneal route. This test predicts the existence of side effects of extrapyramidal type. 6 groups of Wistar rats received an injection of the compounds of the invention and were then tested for their catalepsigenic activity after a 30-minute interval. Haloperidol is used as reference.

SMILES: O=C(CCCN1CCC(O)(c2ccc(Cl)cc2)CC1)c1ccc(F)cc1 [haloperidol]
- catalepsigenic effect: 95%
